Source: patent publication US20110250184A1, “METHODS FOR DETERMINING EFFICACY OF A THERAPEUTIC REGIMEN AGAINST DELETERIOUS EFFECTS OF CYTOTOXIC AGENTS IN HUMAN” (priority 2008, published 2011)

Test system: human bone marrow cells
Assay: In vitro radiation protection of human bone marrow cells (methocult CFU)
Type: cell-based
Experimental: FIG. 3. In vitro radiation protection of human bone marrow cells. Human bone marrow cells were treated with increasing concentrations of ON 01210.Na for 3 hours, and then irradiated with increasing doses of ionizing radiation. The cells were plated into methocult and the total number of CFUs was determined 14 days later.
Radiation protection assays were then performed (FIG. 3). Cells were treated with ON 01210.Na for 3 hours, irradiated, and plated in methocult. The total number of colony forming units was determined 14 days later. […] This compared very favorably when analyzed against protection studies using amifostine as a positive control.
Human bone marrow cells were treated with increasing concentrations of ON 01210.Na for 3 hours, and then irradiated with increasing doses of ionizing radiation. The cells were plated into methocult and the total number of CFUs was determined 14 days later.
When we plotted the survival curve at the optimal concentration of ON 01210.Na (FIG. 3C) we were able to calculate a dose reduction factor (DRF) of 1.6. We also tested the radiation protection activity of amifostine. Amifostine concentrations were selected that closely mimicked the therapeutic plasma concentrations. […] The calculated DRF value of 1.5 was determined from these experiments.

NCCCNCCSP(=O)(O)O [amifostine, reference compound]
optimal concentration for radiation protection (amifostine): 0.25 mM | dose reduction factor (DRF) (amifostine 0.25 mM (optimal)): 1.5 | range of concentrations that protected cells (data not shown): narrow range of concentrations
